Test results published in ChEMBL document CHEMBL3217741, “Synthesis of 1,4-triazole linked zanamivir dimers as highly potent inhibitors of influenza A and B” (Medchemcomm, 2013).

What follows are compounds tested on Influenza B virus (assay: microbe, parasite or virus in culture). Settings: B/Harbin/07/94, MDCK, 72 h.
Description: Antiviral activity against Influenza B virus (B/Harbin/07/94) infected in MDCK cells assessed as reduction of virus-induced cytopathic effect after 72 hrs by MTT assay

Going from CC(=O)N[C@H]1[C@H]([C@H](OC(=O)NCCCCc2cn(CCCNC(=O)O[C@@H]([C@@H]3OC(C(=O)O)=C[C@H](NC(=N)N)[C@H]3NC(C)=O)[C@H](O)CO)nn2)[C@H](O)CO)OC(C(=O)O)=C[C@@H]1NC(=N)N to CC(=O)N[C@H]1[C@H]([C@H](OC(=O)NCCCCCn2cc(CCCCNC(=O)O[C@@H]([C@@H]3OC(C(=O)O)=C[C@H](NC(=N)N)[C@H]3NC(C)=O)[C@H](O)CO)nn2)[C@H](O)CO)OC(C(=O)O)=C[C@@H]1NC(=N)N, the EC50 rises from 0.43 nM to 0.79 nM (1.8-fold).

Compared with CCOC(=O)C1=C[C@@H](OC(CC)CC)[C@H](NC(C)=O)[C@@H](N)C1 [OSELTAMIVIR], CC(=O)N[C@H]1[C@H]([C@H](O)[C@H](O)CO)OC(C(=O)O)=C[C@@H]1NC(=N)N [ZANAMIVIR] is 3.9-fold lower in EC50: 583 nM for the first, 149 nM for the second.

Going from CC(=O)N[C@H]1[C@H]([C@H](OC(=O)NCCCn2cc(CCNC(=O)O[C@@H]([C@@H]3OC(C(=O)O)=C[C@H](NC(=N)N)[C@H]3NC(C)=O)[C@H](O)CO)nn2)[C@H](O)CO)OC(C(=O)O)=C[C@@H]1NC(=N)N to CC(=O)N[C@H]1[C@H]([C@H](OC(=O)NCCCCCCCn2cc(CCCCNC(=O)O[C@@H]([C@@H]3OC(C(=O)O)=C[C@H](NC(=N)N)[C@H]3NC(C)=O)[C@H](O)CO)nn2)[C@H](O)CO)OC(C(=O)O)=C[C@@H]1NC(=N)N, the EC50 falls from 0.51 nM to 0.32 nM (1.6-fold).

CC(=O)N[C@H]1[C@H]([C@H](OC(=O)NCCCn2cc(CCCc3cn(CCCNC(=O)O[C@@H]([C@@H]4OC(C(=O)O)=C[C@H](NC(=N)N)[C@H]4NC(C)=O)[C@H](O)CO)nn3)nn2)[C@H](O)CO)OC(C(=O)O)=C[C@@H]1NC(=N)N and CC(=O)N[C@H]1[C@H]([C@H](OC(=O)NCCCCCn2cc(CCCCCc3cn(CCCCCNC(=O)O[C@@H]([C@@H]4OC(C(=O)O)=C[C@H](NC(=N)N)[C@H]4NC(C)=O)[C@H](O)CO)nn3)nn2)[C@H](O)CO)OC(C(=O)O)=C[C@@H]1NC(=N)N are within 1.5-fold of each other in EC50: 0.65 nM for the first, 0.88 nM for the second.

CC(=O)N[C@H]1[C@H]([C@H](OC(=O)NCCCCCCCCc2cn(CCCCCCCNC(=O)O[C@@H]([C@@H]3OC(C(=O)O)=C[C@H](NC(=N)N)[C@H]3NC(C)=O)[C@H](O)CO)nn2)[C@H](O)CO)OC(C(=O)O)=C[C@@H]1NC(=N)N was tested, and the EC50 was 0.39 nM.
